# Laboratory results as given in US20200011856A1, “Method for Determining the Effectiveness of Treatment for the Prevention of Heartworm Disease” (priority 2017, published 2020).
# Where “and” joins values, the source holds several entries; their conditions need not be identical. Equal entries are not always repeated.
# Assays:
# Dirofilaria immitis = assay: D. immitis L3 infection of NSG mice (FR3 Missouri strain or strain not stated), treatment, recovery and count of worms at necropsy; type: in vivo; settings: for Mean % Rec / % Rec, Mean: group mean
# [1] = test system: Dirofilaria immitis (Merial worms, UC strain); assay: D. immitis L3 infection of NSG mice with Merial worms / UC strain, treatment, recovery and count of worms; type: in vivo; settings: for % Rec, Mean / Mean % Rec: group mean; for Mean Survival / Survival, Mean: in vivo
# [2] = Table 9, NSG mice, 50 Di L3, 1 mg/kg on Days 1, 15, and 30, recovery Days 41 to 43
# [3] = Table 9, individual mouse, NSG mice, 50 Di L3, 1 mg/kg on Days 1, 15, and 30, recovery Days 41 to 43
# [4] = Table 11, NSG mice, 50 Di L3, 1 mg/kg on Days 1, 15, and 30, recovery Days 41 to 42
# [5] = Table 11, NSG mice, 50 Di L3, 5 mg/kg on Days 1, 15, and 30, recovery Days 41 to 42
# [6] = NSG mice, 50 Di L3 Merial worms, 1 mg/kg on Days 1, 15, and 30, recovery Days 41 to 43
# [7] = NSG mice, 50 Di L3 UC strain, High Dose 5 mg/kg on Days 1, 15, and 30, recovery Days 41 and 42
# [8] = NSG mice, 50 Di L3 UC strain, Normal Dose 1 mg/kg on Days 1, 15, and 30, recovery Days 41 and 42
structure (smiles),measurement,setting,value
"COC(=O)Nc1nc2ccc(OS(=O)(=O)c3ccc(F)cc3)cc2[nH]1 [compound 8914, luxabendazole]",% Red,Dirofilaria immitis; [2],0%
same,Mean % Rec,Dirofilaria immitis; [2],33%
same,% Rec,Dirofilaria immitis; [3],24% and 32% and 28% and 48%
same,Mean Survival,Dirofilaria immitis; in vivo,17
same,Survival,Dirofilaria immitis; in vivo,12 and 16 and 14 and 24
C[C@H]1OC(=O)[C@H](CC(C)(C)C)N(C)C(=O)[C@@H](Cc2ccc(C3CCOCC3)cc2)OC(=O)[C@H](CC(C)(C)F)N(C)C(=O)[C@@H](C)OC(=O)[C@H](CC(C)(C)C)N(C)C(=O)[C@@H](Cc2ccc(C3CCOCC3)cc2)OC(=O)[C@H](CC(C)(C)F)N(C)C1=O [compound 4838],% Red,"Dirofilaria immitis; 4838 1 mg/kg days 1, 15, 30, 50 Di L3 (FR3 worms) per NSG mouse, Table 17, vs Control",% Red: 50%
same,"% Rec, Mean","Dirofilaria immitis; 4838 1 mg/kg days 1, 15, 30, 50 Di L3 (FR3 worms) per NSG mouse, recovery Days 41 and 42, Table 17",14%
same,% Rec,"Dirofilaria immitis; 4838 1 mg/kg days 1, 15, 30, 50 Di L3 (FR3 worms) per NSG mouse, recovery Days 41 and 42, Table 17, individual mice, 1 mg/kg",10% (2×) and 20% and 16% (2×) and 12% (2×)
same,% Red,"Dirofilaria immitis; 4838 2.5 mg/kg days 1, 15, 30, 50 Di L3 (FR3 worms) per NSG mouse, Table 17, vs Control",% Red: 76%
same,"% Rec, Mean","Dirofilaria immitis; 4838 2.5 mg/kg days 1, 15, 30, 50 Di L3 (FR3 worms) per NSG mouse, recovery Days 41 and 42, Table 17",6%
same,% Rec,"Dirofilaria immitis; 4838 2.5 mg/kg days 1, 15, 30, 50 Di L3 (FR3 worms) per NSG mouse, recovery Days 41 and 42, Table 17, individual mice, 2.5 mg/kg",2% and 12% and 4% (3×) and 10% and 8%
same,% Red,"Dirofilaria immitis; 4838 5 mg/kg days 1, 15, 30, 50 Di L3 (FR3 worms) per NSG mouse, Table 17, vs Control",% Red: 93%
same,"% Rec, Mean","Dirofilaria immitis; 4838 5 mg/kg days 1, 15, 30, 50 Di L3 (FR3 worms) per NSG mouse, recovery Days 41 and 42, Table 17",2%
same,% Rec,"Dirofilaria immitis; 4838 5 mg/kg days 1, 15, 30, 50 Di L3 (FR3 worms) per NSG mouse, recovery Days 41 and 42, Table 17, individual mice, 5 mg/kg",0% (4×) and 4% (3×)
same,% Red,"Dirofilaria immitis; 4838 10 mg/kg Days 1, 15, 30, 50 Di L3 per NSG mouse, Table 14, vs Control",100%
same,"% Rec, Mean","Dirofilaria immitis; 4838 10 mg/kg Days 1, 15, 30, 50 Di L3 per NSG mouse, recovery Days 41 to 42, Table 14",0%
same,% Rec,"Dirofilaria immitis; 4838 10 mg/kg Days 1, 15, 30, 50 Di L3 per NSG mouse, recovery Days 41 to 42, Table 14, individual mice",0%
same,% Red,"Dirofilaria immitis; 4838 10 mg/kg days 1, 15, 30, 50 Di L3 (FR3 worms) per NSG mouse, Table 17, vs Control",% Red: 99%
same,"% Rec, Mean","Dirofilaria immitis; 4838 10 mg/kg days 1, 15, 30, 50 Di L3 (FR3 worms) per NSG mouse, recovery Days 41 and 42, Table 17",0.29%
same,% Rec,"Dirofilaria immitis; 4838 10 mg/kg days 1, 15, 30, 50 Di L3 (FR3 worms) per NSG mouse, recovery Days 41 and 42, Table 17, individual mice, 10 mg/kg",0% (6×) and 2%
same,% Red,"Dirofilaria immitis; 4838 .5 mg/kg days 1, 15, 30, 50 Di L3 (FR3 worms) per NSG mouse, Table 17, vs Control",% Red: 36%
same,"% Rec, Mean","Dirofilaria immitis; 4838 .5 mg/kg days 1, 15, 30, 50 Di L3 (FR3 worms) per NSG mouse, recovery Days 41 and 42, Table 17",18%
same,% Rec,"Dirofilaria immitis; 4838 .5 mg/kg days 1, 15, 30, 50 Di L3 (FR3 worms) per NSG mouse, recovery Days 41 and 42, Table 17, individual mice",22% and 8% (2×) and 34% and 16% and 12% and 28%
same,% Red,Dirofilaria immitis; [2],24%
same,Mean % Rec,Dirofilaria immitis; [2],25%
same,% Rec,Dirofilaria immitis; [3],26% and 30% (2×) and 12% and 14% and 32%
same,% Red,Dirofilaria immitis; [4],21%
same,% Red,Dirofilaria immitis; [5],92%
same,Mean % Rec,Dirofilaria immitis; [4],19%
same,Mean % Rec,Dirofilaria immitis; [5],2%
same,% Rec,"Dirofilaria immitis; Table 11, individual mouse, NSG mice, 50 Di L3, 1 mg/kg on Days 1, 15, and 30, recovery Days 41 to 42",20% and 12% and 8% and 30% and 28% and 18%
same,% Rec,"Dirofilaria immitis; Table 11, individual mouse, NSG mice, 50 Di L3, 5 mg/kg on Days 1, 15, and 30, recovery Days 41 to 42",4% (2×) and 2% (3×) and 0%
same,"Survival, Mean",Dirofilaria immitis; in vivo,9
same,Survival,"Dirofilaria immitis; in vivo, 1 mg/kg",5 and 10 and 8 and 6
same,"Survival, Mean","Dirofilaria immitis; in vivo, 1 mg/kg",7
same,"Survival, Mean","Dirofilaria immitis; in vivo, 2.5 mg/kg",3
same,"Survival, Mean","Dirofilaria immitis; in vivo, 5 mg/kg",1
same,"Survival, Mean","Dirofilaria immitis; in vivo, 10 mg/kg",0
same,"% Rec, Mean","[1]; 4838 1 mg/kg Days 1, 15, 30, 50 Di L3 (UC Strain) per NSG mouse, recovery Days 41 to 43",9%
same,% Rec,"[1]; 4838 1 mg/kg Days 1, 15, 30, 50 Di L3 (UC Strain) per NSG mouse, recovery Days 41 to 43, individual mice, 1 mg/kg",10% and 14% and 8% and 20% and 6% (2×) and 2%
same,% Red,"[1]; 4838 1 mg/kg Days 1, 15, 30, 50 Di L3 (UC Strain) per NSG mouse, vs Control",75%
same,"% Rec, Mean","[1]; 4838 5 mg/kg Days 1, 15, 30, 50 Di L3 (UC Strain) per NSG mouse, recovery Days 41 to 43",2%
same,% Rec,"[1]; 4838 5 mg/kg Days 1, 15, 30, 50 Di L3 (UC Strain) per NSG mouse, recovery Days 41 to 43, individual mice, 5 mg/kg",2% (4×) and 0% and 4% (2×)
same,% Red,"[1]; 4838 5 mg/kg Days 1, 15, 30, 50 Di L3 (UC Strain) per NSG mouse, vs Control",94%
same,% Red,[1]; [6],38%
same,% Red,[1]; [7],92%
same,% Red,[1]; [8],58%
same,Mean % Rec,[1]; [6],21%
same,Mean % Rec,[1]; [7],3%
same,Mean % Rec,[1]; [8],15%
same,Mean Survival,[1]; 1 mg/kg,10 and 8
same,"Survival, Mean",[1]; 1 mg/kg,5
same,Mean Survival,[1]; 5 mg/kg,1
same,"Survival, Mean",[1]; 5 mg/kg,1
same,% Rec,"[1]; individual mouse, NSG mice, 50 Di L3 Merial worms, 1 mg/kg on Days 1, 15, and 30, recovery Days 41 to 43, 1 mg/kg",20% (3×) and 12% and 24% and 16% (2×) and 36%
same,% Rec,"[1]; individual mouse, NSG mice, 50 Di L3 UC strain, High Dose 5 mg/kg on Days 1, 15, and 30, recovery Days 41 and 42, 5 mg/kg",4% (4×) and 0% and 2% (2×)
same,% Rec,"[1]; individual mouse, NSG mice, 50 Di L3 UC strain, Normal Dose 1 mg/kg on Days 1, 15, and 30, recovery Days 41 and 42, 1 mg/kg",14% (3×) and 16% (3×) and 18%
